The target in one experiment is T1, Aβ oligomers (Homo sapiens, UniProt P05067).
T1 construct: a depsipeptide derivative of Aβ(1–42) was utilized; made in house; host or cells: chemical peptide synthesis (no expression host)
The experiment is described as follows: Transmission electron microscopy of Aβ oligomers with ligand. To be noted: 72 µM Aβ oligomer + 36 µM ligand. Here is the method:
The concentration-dependent increase of the particle size described above raised the question if this phenomenon was linked to an accelerated fibrillization or to any form of conformational remodeling of the Aβ oligomers. […] The shape of the aggregates was unequivocally different from that of the mature fibrils.
Figure 8 Affinity precipitation as detected by TEM. (A) TEM image of the 72 µM Aβ oligomer. (B) TEM image of the 72 µM Aβ oligomer upon addition of 36 µM 7.
Oligomer solution was placed on formvar-carbon-coated 400-mesh copper grids (Electron Microscopy Sciences, Washington, PA) and stained negatively with uranyl acetate. The aggregates were characterized by TEM on a Philips CM 10 transmission electron microscope (FEI Company, Hillsboro, Oregon, USA) operating at 100 kV. Images were taken with a Megaview II Soft Imaging System, routinely at magnifications of ×46000 and ×64000, and analyzed with an AnalySis® 3.2 software package (Soft Imaging System GmbH, Münster, Germany).

In experiment [1] the target is T2, HMW fraction of Aβ oligomers (Homo sapiens, UniProt P05067).
T2 construct: a depsipeptide derivative of Aβ(1–42) was utilized; made in house; host or cells: chemical peptide synthesis (no expression host)
The experiment is described as follows: Concentration-dependent dot blot with SEC-separated HMW Aβ oligomer fraction. To be noted: 10 µg ligand spotted, BAM10 1∶500. Format: binding. Here is the method:
(§1) ITC measurement for 7 indicated fractional stoichiometry for the low nM binding, which pointed to that the high affinity interaction involves only a fraction of the oligomeric Aβ sample. To localize the strongly binding fraction in the mixture, size exclusion chromatographic (SEC) separation was carried out and the resulting Aβ oligomer fractions were tested with 7 in concentration-dependent dot blot experiments. Two dominant peaks were found in the SEC chromatogram corresponding to the high molecular weight (HMW) and low molecular weight (LMW) components (Figure 7). […] In control experiments, specific and/or preferential binding of Aβ by the membrane itself were ruled out. These findings were in line with the ITC and ELISA results. It could be concluded that 7 preferentially bound to the LMW fraction at low nM concentration and also interacted with the HMW fraction at sub-µM level.
(§2) Figure 7 Selective binding to the LMW Aβ oligomers in the nM range. Size exclusion chromatographic separation of the HMW and LMW fractions of the Aβ oligomeric sample (top panel). Concentration-dependent dot blot experiments performed with the HMW (A) and the LMW fractions (B). The ligand loadings were 10 µg aliquots of 7, and the sequence specific antibody BAM10 (1∶500) was utilized. Lanes within the panels are parallel experiments. […]

Experiment [2] deals with T3, LMW fraction of Aβ oligomers (Homo sapiens, UniProt P05067).
T3 construct: a depsipeptide derivative of Aβ(1–42) was utilized; made in house; host or cells: chemical peptide synthesis (no expression host)
Kind of experiment: Concentration-dependent dot blot with SEC-separated LMW Aβ oligomer fraction. It counts as binding. As to conditions: 10 µg ligand spotted, BAM10 1∶500. Here is the method: as §1, §2

Experiment [3] has as its system LTP in mouse hippocampal slices impaired by Aβ(1–42) oligomers. Kind of experiment: Ex vivo hippocampal slice LTP electrophysiology. It counts as cell-based. To be noted: mean ±SEM. From the text: We investigated whether 7 could protect against the synaptic plasticity damage caused by Aβ(1–42) oligomers by using a hippocampus slice LTP model. LTP, a correlate of learning and memory has been repeatedly shown to be impaired by Aβ(1–42) oligomers. As negative control, substance 11 was applied. The experimenters were blind to the compounds tested.
These observations indicate the significant protective effect of 7 (Figure 12D). To test the effects of valency, LTP experiments were repeated with 8 under the same conditions.
Via standard procedures, 350-µm-thick transverse hippocampal slices were prepared from the brain of 7-months-old mice (CD1, Animal Breeding Facility, University of Szeged) with a McIlwain tissue chopper (Campden Instruments, Loughborough, UK). Slices were incubated in standard artificial cerebrospinal fluid (ACSF) at ambient temperature for 60 min, during constant gassing with 95% O2–5% CO2. The ACSF contained (mM): NaCl, 130; KCl, 3.5; CaCl2, 2; MgCl2, 2; NaH2PO4, 0.96; NaHCO3, 24; and D-glucose, 10 (pH 7.4). Individual slices were transferred to a 3D-MEA chip with 60 tip-shaped and 60-μm-high electrodes spaced at 100 μm (Ayanda Biosystems, S.A., Lausanne, Switzerland). The slice was continuously perfused with oxygenated ACSF (1.5 ml min^−1 at 34 °C) containing 720 nM Aβ(1–42) oligomers and/or 950 nM ligand throughout the recording session. Data were recorded with a standard, commercially available MEA setup (Multi Channel Systems MCS GmbH, Reutlingen, Germany). The Schaffer-collateral was stimulated by injecting a biphasic current waveform (−100/+100 μs) through one selected electrode at 0.033 Hz. Care was taken to choose the stimulating electrode in the same region from one slice to the other. The peak-to-peak amplitudes of fEPSPs at the stratum pyramidale and stratum radiatum of CA1 were analyzed. After a 30-min incubation period, the threshold and the maximum of stimulation intensity for evoke responses was determined. To evoke responses, 30% of the maximal stimulation intensity was used. LTP was induced by applying a theta-burst stimulation (TBS) pattern at the maximal stimulation intensity. The TBS comprised four trains administered at 20-s intervals with 10 bursts given at 5 Hz per train and 4 pulses at 100 Hz per burst. Statistical analysis was carried out by using two-tailed Student's t-test. For representative raw data see Figure S12.

T2 sequence (P05067 672-713 limits assumed): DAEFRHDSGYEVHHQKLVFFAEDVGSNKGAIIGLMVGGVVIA
T3 sequence (P05067 672-713 limits assumed): as above
T1 sequence (P05067 672-713 limits assumed): as above

In the case of `N=C(N)NCCC[C@@H](CC(=O)N[C@H]1CCCC[C@@H]1C(=O)N[C@H]1CCCC[C@@H]1C(=O)N[C@@H](CC(=O)O)CC(=O)N[C@H]1CCCC[C@@H]1C(=O)NCC(=O)NCC(=O)N[C@@H](CSC1CC(=O)N(CCC(=O)NCCNC(=O)CCN(CCC(=O)NCCNC(=O)CCN2C(=O)CC(SC[C@H](NC(=O)CNC(=O)CNC(=O)[C@H]3CCCC[C@@H]3NC(=O)C[C@H](CC(=O)O)NC(=O)[C@H]3CCCC[C@@H]3NC(=O)[C@H]3CCCC[C@@H]3NC(=O)C[C@H](CCCNC(=N)N)NC(=O)[C@H]3CCCC[C@@H]3N)C(N)=O)C2=O)CCN(CCC(=O)NCCNC(=O)CCN2C(=O)CC(SC[C@H](NC(=O)CNC(=O)CNC(=O)[C@H]3CCCC[C@@H]3NC(=O)C[C@H](CC(=O)O)NC(=O)[C@H]3CCCC[C@@H]3NC(=O)[C@H]3CCCC[C@@H]3NC(=O)C[C@H](CCCNC(=N)N)NC(=O)[C@H]3CCCC[C@@H]3N)C(N)=O)C2=O)CCC(=O)NCCNC(=O)CCN2C(=O)CC(SC[C@H](NC(=O)CNC(=O)CNC(=O)[C@H]3CCCC[C@@H]3NC(=O)C[C@H](CC(=O)O)NC(=O)[C@H]3CCCC[C@@H]3NC(=O)[C@H]3CCCC[C@@H]3NC(=O)C[C@H](CCCNC(=N)N)NC(=O)[C@H]3CCCC[C@@H]3N)C(N)=O)C2=O)C1=O)C(N)=O)NC(=O)[C@H]1CCCC[C@@H]1N` (some centres unmarked) [Compound 7], the “TEM: effect on Aβ oligomer particle morphology” value at Aβ oligomers is listed as “caused association of the spherical oligomers a few nm in size into bundles of aggregates in the μm range”. Moreover, in experiment [1], the “Dot blot binding of HMW Aβ oligomer fraction” value is listed as “stained with just below micromolar affinity”. Moreover, in experiment [2], the “Dot blot binding of LMW Aβ oligomer fraction” value is “saturation of binding in the low nanomolar region”. Besides, the “LTP (potentiation) with Aβ(1–42) oligomers and ligand together” value in experiment [3] (720 nM Aβ(1–42) oligomers + 950 nM ligand, 180 min after LTP induction) came to 195±5%. The “LTP (potentiation) with ligand alone” value in experiment [3] (950 nM ligand, no Aβ oligomers) is 184±16%.

For the origin of these results see publication PMC3408453, “A Foldamer-Dendrimer Conjugate Neutralizes Synaptotoxic β-Amyloid Oligomers” (PLoS ONE, 2012).
